Our source for the TGI and GI50 values is PubChem BioAssay (NCI).

Each structure is given as a SMILES string.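 Results reflect a 48-hour exposure of cells in 96-well plates to compound at five concentrations. GI50 is the concentration that inhibits growth by half. TGI: total growth inhibition.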

Among the test systems are IGROV1 ovarian; OVCAR-3 ovarian; HL-60(TB) leukemia; A549 NSCLC; KM12 colon; SF-539 CNS; LXFL 529 NSCLC; SF-268 CNS; TK-10 renal; RXF 393 renal.
Common to all, as to experiment: NCI-60 cell line screen, 48 h

Turning to `CCOC(=O)NC(=O)c1cn(CCNCCO)c(=O)[nH]c1=O`, the TGI with IGROV1 ovarian, with OVCAR-3 ovarian, in the assay with HL-60(TB) leukemia, in the assay with A549 NSCLC, with KM12 colon and in the assay on SF-539 CNS was greater than 100 µM in each case. For the same compound, the TGI with LXFL 529 NSCLC and with SF-268 CNS was greater than 100 µM in each case.
Take `OCCCNc1nc(=S)[nH]c2[nH]ncc12`: the GI50 with TK-10 renal was 33.6 µM; in the assay on IGROV1 ovarian, 29.9 µM; in the assay on OVCAR-3 ovarian it was 31.4 µM; in the assay on HL-60(TB) leukemia, greater than 100 µM; in the assay with RXF 393 renal it was 44.3 µM; with A549 NSCLC it was 44.7 µM. For the same compound, the GI50 is 38.1 µM in the assay on KM12 colon, 23.3 µM in the assay with SF-539 CNS and 32.7 µM in the assay with SF-268 CNS. In addition, the TGI in the assay with TK-10 renal, in the assay on IGROV1 ovarian, with OVCAR-3 ovarian, with HL-60(TB) leukemia, in the assay on RXF 393 renal and in the assay with A549 NSCLC was greater than 100 µM in each case. For the same compound, the TGI with KM12 colon is greater than 100 µM; in the assay on SF-539 CNS, greater than 100 µM; with SF-268 CNS, 92.2 µM.
On to `COc1ccc(CC2CCc3nc(N)nc(N)c3C2)cc1OC` (centres undefined), for which the TGI in the assay with TK-10 renal is greater than 100 µM; in the assay on IGROV1 ovarian, greater than 64 µM; in the assay with OVCAR-3 ovarian, greater than 100 µM; with HL-60(TB) leukemia, greater than 100 µM; with RXF 393 renal, 0.81 µM; in the assay on A549 NSCLC, greater than 53.1 µM. Further, the figures for the TGI in the assay with KM12 colon, in the assay with SF-539 CNS and in the assay on SF-268 CNS were greater than 100 µM, greater than 40.5 µM and greater than 29 µM, respectively.
Consider `c1nc(N2CC2)c2cnn(C3CCCCO3)c2n1` (centres undefined), for which the TGI with TK-10 renal, with IGROV1 ovarian, in the assay on OVCAR-3 ovarian, with HL-60(TB) leukemia, in the assay with RXF 393 renal and in the assay with A549 NSCLC was greater than 100 µM each time. Further, the TGI with KM12 colon, in the assay with SF-539 CNS, in the assay with LXFL 529 NSCLC and with SF-268 CNS was greater than 100 µM each time.
As to `O=C(N/N=C/C=C/c1ccccc1)[C@H](O)[C@@H](O)C(=O)N/N=C/C=C/c1ccccc1`, the TGI with TK-10 renal, in the assay with IGROV1 ovarian, with HL-60(TB) leukemia, in the assay with RXF 393 renal, in the assay with A549 NSCLC and in the assay with KM12 colon was greater than 100 µM each time. In addition, the TGI in the assay with SF-539 CNS, in the assay with LXFL 529 NSCLC and in the assay on SF-268 CNS was greater than 100 µM throughout.
